{"source": "paper PMC9653884", "about": "“Bisindolylmaleimides New Ligands of CaM Protein” (Molecules, 2022)", "origin": "cited, not measured here"}
{"target": "CaM", "conditions": "read-out: Kd of reported CaM inhibitor", "units": {"Kd": "µM"}}
{"molecule": "CN(C)CCCN1c2ccccc2CCc2ccccc21", "note": "[Imipramine]", "Kd": 14}
{"molecule": "NCCc1c[nH]c2ccc(O)cc12", "note": "[Serotonin]", "Kd": 0.71}
{"molecule": "NCCCCCCNS(=O)(=O)c1cccc2c(Cl)cccc12", "note": "[W7]", "Kd": 7}
{"molecule": "CC[C@]1(O)C[C@@H]2CN(CCc3c([nH]c4ccccc34)[C@@](C(=O)OC)(c3cc4c(cc3OC)N(C)[C@@H]3[C@]45CCN4CC=C[C@@](CC)(C[C@@]36OC(=O)N(CCCl)C6=O)[C@H]45)C2)C1", "note": "[KAR-2]", "Kd": 5}
